Measured values taken from patent US11135187B2, “Compositions and methods for treating diabetic retinopathy” (Augusta University Research Institute, Inc., priority 2017, dated 2021).

Key:
albumin [1] = assay: intravitreal Ang II-induced retinal albumin leakage; assay type: in vivo, mice; settings: for intravitreal Ang II-induced retinal albumin leakage: EET 15 μg/kg/day s.c., Ang II intravitreal on day 3, leakage significant only with 11,12-EET
Procedure: B6 Mice were injected mice with Ang II (1 or 5 μg per eye) or vehicle assayed for albumin leakage. The expression of albumin was used as the index of leakage assay. Mice were treated with 11, 12-EET (15 μg/kg/day, s.c.; Alzet: Cayman), 14,15-EET (15 μg/kg/day, s.c.; Alzet; Cayman), or vehicle. 11,12-EET and 14,15-EET were used because they are the major products of cytochrome P450 (CYP) epoxygenases. On day 3 after treatment, mice were intravitreally injected with Ang II (5 μg/μl).

albumin [2] = assay: intravitreal hVEGF-induced retinal albumin leakage; assay type: in vivo; settings: 11,12-EET 15 μg/kg/day s.c. one week; sEH KO vs sEH (+/+) mice
Procedure: sEH (−/−) and sEH (+/+) mice were treated with 11, 12-EET (15 μg/kg/day, s.c.; Alzet) or a vehicle for one week, then injected with hVEGF.

albumin [3] = assay: intravitreal Ang II-induced retinal albumin leakage in diabetic mice; assay type: in vivo; settings: for intravitreal Ang II-induced retinal albumin leakage in diabetic mice: 11,12-EET 15 μg/kg/day s.c., MS-PPOH 20 mg/kg/day i.p.
Procedure: (§1) One week after mice developed diabetes, diabetic and control mice were assigned to the following groups: Ang II (intravitreal injection with 5 μg/1 μL of Ang II); diabetes+Ang II; diabetes+Ang II+11,12-EET (15 μg/kg/day, s.c.; Alzet); diabetes+Ang II+MS-PPOH (CAS No. 206052-02-0-(N-methylsulfonyl-6-(2-propargyloxyphenyl)hexanamide, a selective EETs blocker; 20 mg/kg/day, i.p); and control. 11,12-EET was used because it potentiates intravitreal Ang II-induced retinal damage (FIGS. 4A-4C); also, MS-PPOH was used in a previous study (Huang, H., Exp Biol Med (Maywood), 231:1744-1752 (2006)).

[4] = blood glucose levels in diabetic mice; assay type: in vivo; settings: diabetic mice + Ang II; vs. 483±122 without treatment; not affected
Procedure: as §1

GLUT-1 = GLUT-1 expression in HRECs under HG and hypoxia; assay type: cell-based, human; settings: HG (25 mM D-Glucose) + CO (CoCl2 hypoxia)
Procedure: (§2) The expression of albumin, ICAM-1, IL-6, GADPH, GLUT-1, and sEH was analyzed by homogenization of tissues or cells. Samples from mice in different treatments as well as human retinal endothelial cells (HRECs) were separated by electrophoresis for 3 h. The proteins were transferred to an enhanced chemiluminescence (ECL) membrane in a transfer buffer. The membranes were blocked for 90 min with 5% nonfat dry milk in Tris-buffered saline. The membranes were incubated with antibody against albumin (1:5000; Bethyl), ICAM-1 (1:2000; Cell Signaling), IL-6 (1:2000; Santa Cruz), GADPH (1:2000; abeam), GLUT-1 (1:10,000; abeam), or sEH (1:500; Santa. Cruz). The membranes were incubated with secondary antibody for albumin, ICAM-1, IL-6, GADPH, GLUT-1, or sEH. Chemiluminescent detection using ECL reagent from Millipore Corporation was done on X-ray film. In addition, quantification of the expression levels of these proteins was analyzed with NIH image J software.
Methods and Materials HRECs were subjected to L-glucose (osmotic control), L-Glu+hypoxia (CoCl2, 5 μM; CO), HG (25 mM of D-Glucose), or HG+CO.

[5] = EUCLID trial, 530 participants, after two years of treatment; cited from earlier work
[6] = DIRECT trial, oral treatment; cited from earlier work
sEH = assay: Western blot of sEH protein in tissues of Ang II-infused mice; assay type: in vivo
Procedure: as §2, with “Eight-week-old male B6 mice were treated for 4 weeks with Ang II (3 mg/kg/day, s.c.; […]; Cayman), Ang II (Sigma), or vehicle. […]. The expression” for “The expression”
Male mice were treated for 4 weeks with Ang II (3 mg/kg/day, s.c.; Alzet)+telmisartan, a selective AT1 antagonist (2.5 mg/kg/day in drinking water; Cayman), Ang II, or vehicle.
as §2, with “abcam),” for “abeam),”, “Santa” for “Santa.”

[7] = blood pressure in Ang II-induced hypertension; assay type: in vivo, mice; settings: Ang II 3 mg/kg/day s.c., 4 weeks, vs vehicle
albumin [8] = assay: Western blot of total retinal albumin in Ang II-infused mice (retinal permeability); assay type: in vivo; settings: Ang II 3 mg/kg/day s.c., 4 weeks, vs vehicle
Procedure: The expression of albumin, ICAM-1 IL-6, GADPH, GLUT-1, and sEH was analyzed by homogenization of tissues or cells. Samples from mice in different treatments as well as human retinal endothelial cells (HRECs) were separated by electrophoresis for 3 h. The proteins were transferred to an enhanced chemiluminescence (ECL) membrane in a transfer buffer. The membranes were blocked for 90 min with 5% nonfat dry milk in Tris-buffered saline. The membranes were incubated with antibody against albumin (1:5000; Bethyl), ICAM-1 (1:2000; Cell Signaling), IL-6 (1:2000; Santa Cruz), GADPH (1:2000; abcam), GLUT-1 (1:10,000; abcam), or sEH (1:500; Santa Cruz). The membranes were incubated with secondary antibody for albumin, ICAM-1, IL-6, GADPH, GLUT-1, or sEH. Chemiluminescent detection using ECL reagent from Millipore Corporation was done on X-ray film. In addition, quantification of the expression levels of these proteins was analyzed with NIH image J software.

## CCCCC/C=C\C[C@H]1O[C@H]1C/C=C\C/C=C\CCCC(=O)O [11,12-EET]
Albumin [1]
  intravitreal Ang II-induced retinal albumin leakage: promoted
Albumin [1]; comparison of the two EETs
  potency in potentiating intravitreal Ang II-induced retinal damage: more potent than 14,15-EET
Albumin [2]
  effects of 11,12-EET on intravitreal hVEGF-induced retinal vascular leakage: potentiated
Albumin [3]
  intravitreal Ang II-induced retinal albumin leakage in diabetic mice: increased
[4]
  blood glucose levels: 528 ± 53 mg/dL
GLUT-1
  GLUT-1 expression in HRECs: promoted GLUT-1 expression

## CCCCCC1OC1C/C=C\C/C=C\C/C=C\CCCC(=O)O (stereo not shown) [14,15-EET]
Albumin [1]
  intravitreal Ang II-induced retinal albumin leakage: promoted
GLUT-1
  GLUT-1 expression in HRECs: promoted GLUT-1 expression

## NCCCC[C@H](N[C@@H](CCc1ccccc1)C(=O)O)C(=O)N1CCC[C@H]1C(=O)O [Lisinopril]
[5]
  reduction of progression of DR: 50%
  reduction of progression to proliferative DR: 80%

## C#CCOc1ccccc1CCCCCC(=O)NS(C)(=O)=O [MS-PPOH, N-methylsulfonyl-6-(2-propargyloxyphenyl)hexanamide]
Albumin [3]
  intravitreal Ang II-induced retinal albumin leakage in diabetic mice: decreased
[4]
  blood glucose levels: 502 ± 57 mg/dL

## CCOc1nc2cccc(C(=O)O)c2n1Cc1ccc(-c2ccccc2-c2nnn[nH]2)cc1 [candesartan]
[6]
  incidence of diabetic retinopathy: decreased the incidence of diabetic retinopathy
  progression of established diabetic retinopathy: did not reduce the progression of established diabetic retinopathy

## CCCc1nc2c(C)cc(-c3nc4ccccc4n3C)cc2n1Cc1ccc(-c2ccccc2C(=O)O)cc1 [telmisartan]
sEH; heart, Ang II + telmisartan 2.5 mg/kg/day in drinking water, 4 weeks
  Ang II-induced sEH expression in the heart: attenuated
sEH; kidney, Ang II + telmisartan 2.5 mg/kg/day in drinking water, 4 weeks
  Ang II-induced sEH expression in the kidney: attenuated
sEH; retina, Ang II + telmisartan 2.5 mg/kg/day in drinking water, 4 weeks
  Ang II-induced retinal expression of sEH: reversed

## Ang II: angiotensin II, produced from Ang I by angiotensin-converting enzyme (DRVYIHPF; Angiotensin-2; UniProt P01019 25-32, looked up)
[7]
  blood pressure: became hypertensive
sEH; retina, Ang II 3 mg/kg/day s.c., 4 weeks
  retinal sEH protein levels, elevation vs vehicle group: 2 fold
sEH; retina, Ang II infusion 3 mg/kg/day s.c., 4 weeks (Example 4)
  retinal expression of sEH: increased
Albumin [8]
  total retinal albumin: did not affect total retinal albumin
Albumin [3]; intravitreal Ang II 5 μg/1 μL, diabetic mice
  albumin leakage (blood retinal barrier disruption) in diabetes: significant increases in albumin leakage
